# Activity calls are given as the source filed them.
# What was measured:
# [1] = molecular target: Nuclear receptor subfamily 5 group A member 2 (Homo sapiens, UniProt O00482); type: functional, cell-based;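 also: HEK293T cells transfected with LRH-1 and a StAR promoter luciferase reporter; potency for inhibitors that lower LRH-1 driven reporter light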
# [2] = StAR promoter reporter inhibition counter-screen, dose response, counter-screen for LRH-1 inverse agonist project, cell-based, luminescence, luciferase reporter (AID 651969); type: functional
# [3] = molecular target: Steroidogenic factor 1 (Homo sapiens, UniProt Q13285); test: Counterscreen for inverse agonists of the liver receptor homolog-1 (LRH-1; NR5A2): Luminescence-based cell-based high throughput dose response assay to identify inverse agonists of the Steroidogenic Factor 1 Nuclear Receptor (SF1; NR5A1).; type: functional
# [4] = molecular target: 5-hydroxytryptamine receptor 2A (Mus musculus, UniProt P35363); type: functional, cell-based;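 also: CHO-K1 cells with tagged receptor and beta-arrestin; agonist potency measured as compound-induced activation of the receptor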
# [5] = molecular target: Mu-type opioid receptor (Homo sapiens, UniProt P35372); type: functional, cell-based;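 also: U2OS cells with beta-arrestin recruitment to OPRM1 by beta-gal complementation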
# [6] = molecular target: T1, Nuclear receptor subfamily 0 group B member 1 (Homo sapiens, UniProt P51843); type: functional, cell-based;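 also: HEK293T cells transfected with SF-1 and DAX-1 plus StAR promoter luciferase reporter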
# T1 sequence (P51843 whole entry): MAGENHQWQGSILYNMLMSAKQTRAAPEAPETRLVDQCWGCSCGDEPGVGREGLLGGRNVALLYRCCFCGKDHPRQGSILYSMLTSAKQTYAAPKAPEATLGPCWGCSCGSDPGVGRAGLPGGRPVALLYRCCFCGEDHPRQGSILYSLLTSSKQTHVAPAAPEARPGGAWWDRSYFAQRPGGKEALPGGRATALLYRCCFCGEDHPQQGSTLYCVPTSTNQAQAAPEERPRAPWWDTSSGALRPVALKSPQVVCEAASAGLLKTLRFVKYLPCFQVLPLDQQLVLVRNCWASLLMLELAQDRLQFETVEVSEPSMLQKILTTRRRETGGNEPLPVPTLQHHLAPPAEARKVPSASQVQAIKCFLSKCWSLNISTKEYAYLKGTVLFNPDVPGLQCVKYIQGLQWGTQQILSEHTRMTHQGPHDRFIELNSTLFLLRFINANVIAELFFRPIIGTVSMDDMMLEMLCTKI
# [7] = cells; type: functional, cell-based
# [8] = molecular target: T2, Orexin/Hypocretin receptor type 1 (Homo sapiens, UniProt O43613); test: Homogeneous Time Resolved Fluorescence (HTRF)-based cell-based high throughput dose response assay for antagonists of the orexin 1 receptor (OX1R; HCRTR1). [Related pubchem assays (depositor defined):AID434989, AID435008, AID463079, AID485270, AID492963, AID492964, AID492965, AID493232, AID504717, AID504718]; type: functional
# T2 sequence (O43613 whole entry): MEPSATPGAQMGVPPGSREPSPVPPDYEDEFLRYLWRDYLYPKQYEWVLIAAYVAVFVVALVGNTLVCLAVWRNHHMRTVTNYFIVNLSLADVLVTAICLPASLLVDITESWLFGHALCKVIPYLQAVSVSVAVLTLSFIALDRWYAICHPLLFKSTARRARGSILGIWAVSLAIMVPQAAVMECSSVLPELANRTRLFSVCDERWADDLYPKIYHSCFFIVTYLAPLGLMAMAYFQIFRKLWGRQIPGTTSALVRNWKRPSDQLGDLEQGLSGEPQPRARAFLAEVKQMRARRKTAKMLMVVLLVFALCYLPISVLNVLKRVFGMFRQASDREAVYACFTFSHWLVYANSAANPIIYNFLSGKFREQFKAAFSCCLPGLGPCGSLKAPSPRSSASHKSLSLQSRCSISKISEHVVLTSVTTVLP
# [9] = (§1) Counterscreen for antagonists of the orexin 1 receptor (OX1R; HCRTR1): Fluorescence-based cell-based high throughput dose response assay to identify antagonists of the parental CHO cell line. [Related pubchem assays (depositor defined):AID434989, AID435008, AID463079, AID485270, AID492963, AID492964, AID492965, AID493232, AID504699, AID504701]; type: functional
# [10] = molecular target: T2, Orexin/Hypocretin receptor type 1; test: Fluorescence-based cell-based high throughput dose response assay for antagonists of the orexin 1 receptor (OX1R; HCRTR1). [Related pubchem assays (depositor defined):AID434989, AID435008, AID463079, AID485270, AID492963, AID492964, AID492965, AID493232, AID504717, AID504718]; type: functional
# [11] = molecular target: T3, Orexin receptor type 2 (Homo sapiens, UniProt O43614); test: Counterscreen assay for antagonists of the orexin 1 receptor (OX1R; HCRTR1): Fluorescence-based cell-based dose response assay for antagonists of the orexin 2 receptor (OX2R; HCRTR2), run by assay provider.; type: functional
# T3 sequence (O43614 whole entry): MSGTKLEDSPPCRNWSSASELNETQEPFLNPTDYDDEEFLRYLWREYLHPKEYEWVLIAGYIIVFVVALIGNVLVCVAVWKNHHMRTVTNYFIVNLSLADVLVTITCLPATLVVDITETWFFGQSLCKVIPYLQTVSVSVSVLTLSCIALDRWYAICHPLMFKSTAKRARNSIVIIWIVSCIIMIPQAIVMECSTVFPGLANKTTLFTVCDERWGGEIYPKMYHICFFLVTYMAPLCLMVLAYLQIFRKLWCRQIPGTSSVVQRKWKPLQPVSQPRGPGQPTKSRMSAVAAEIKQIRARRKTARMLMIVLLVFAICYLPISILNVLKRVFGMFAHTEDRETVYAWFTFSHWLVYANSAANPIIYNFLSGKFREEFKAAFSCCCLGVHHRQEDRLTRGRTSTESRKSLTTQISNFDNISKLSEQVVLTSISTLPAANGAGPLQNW
# [12] = molecular target: T3, Orexin receptor type 2; test: Counterscreen assay for antagonists of the orexin 1 receptor (OX1R; HCRTR1): Homogeneous Time Resolved Fluorescence (HTRF)-based cell-based dose response assay for antagonists of the orexin 2 receptor (OX2R; HCRTR2), run by assay provider.; type: functional
# [13] = system: CHO-K1; test: as §1, with “Homogeneous time resolved fluorescence (HTRF)-based” for “Fluorescence-based”, “cell-based” for “cell-based high throughput”, “CHO-K1” for “CHO”; type: functional; settings: Cricetulus griseus;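 also: potency for inhibition of ATP-stimulated IP1 production as antagonists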
# [14] = Luminescence Cell-Based Dose Confirmation HTS to Identify Inhibitors of Platelet Dense Granule Release. [Related pubchem assays: 1663 (Primary HTS), 1678 (Summary of Project)]; type: functional
# [15] = ARNT/TACC3 interaction disruptors, potency, confirmation, biochemical, AlphaScreen, cherry-picked samples (AID 651703); type: functional, Homo sapiens;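 also: His-tagged ARNT PAS-B domain paired with GST-TACC3 E629A dimer coactivator fragment; potency of inhibitors that break up the complex and lower AlphaScreen signal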
# [16] = molecular target: T4, Heat shock factor protein 1 (Mus musculus, UniProt P38532); test: inhibition of MG132-induced HSE-luciferase signal, confirmation, cell-based, NIH3T3, luminescence, dose retest (AID 2382); type: functional;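 also: NIH3T3 fibroblasts with HSF1-driven luciferase reporter stressed by proteasome inhibitor MG132; luminescence from HSF1-driven luciferase expression after 8 hours of MG132 stress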
# T4 sequence (P38532 whole entry): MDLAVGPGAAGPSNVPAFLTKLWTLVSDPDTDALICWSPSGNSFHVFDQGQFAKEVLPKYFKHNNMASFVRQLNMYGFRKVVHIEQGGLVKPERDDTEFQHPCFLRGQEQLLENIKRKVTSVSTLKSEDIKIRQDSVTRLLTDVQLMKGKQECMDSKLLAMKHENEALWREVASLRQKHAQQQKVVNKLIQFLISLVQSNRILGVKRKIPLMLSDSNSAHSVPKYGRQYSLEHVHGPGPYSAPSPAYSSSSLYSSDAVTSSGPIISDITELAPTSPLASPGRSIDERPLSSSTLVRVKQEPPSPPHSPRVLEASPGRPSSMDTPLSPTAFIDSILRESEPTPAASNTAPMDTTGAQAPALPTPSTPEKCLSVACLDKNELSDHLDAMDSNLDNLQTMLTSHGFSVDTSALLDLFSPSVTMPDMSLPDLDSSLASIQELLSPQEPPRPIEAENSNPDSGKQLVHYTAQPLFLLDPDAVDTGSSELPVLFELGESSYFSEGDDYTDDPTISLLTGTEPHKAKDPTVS
# [17] = molecular target: FAD-linked sulfhydryl oxidase ALR (Homo sapiens, UniProt P55789); test: inhibitors of human ALR sulfhydryl oxidase, dose response, biochemical, H2O2 detection, luminescence, cherry-pick (AID 493248)
# [18] = molecular target: Luciferin 4-monooxygenase (Photinus pyralis, UniProt P08659); test: firefly luciferase enzyme inhibitors, dose response, biochemical, luminescence (AID 1891)
# [19] = molecular target: Photoreceptor-specific nuclear receptor (Homo sapiens, UniProt Q9Y5X4); type: functional, cell-based;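 also: CHO-S cells with Gal4-NCOR and VP16-NR2E3 two-hybrid luciferase reporter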
# [20] = molecular target: Adenosylmethionine-8-amino-7-oxononanoate aminotransferase (Mycobacterium tuberculosis, UniProt P9WQ81); test: Mycobacterium tuberculosis BioA enzyme inhibitor Measured in Biochemical System Using Plate Reader - 2163-02_Inhibitor_Dose_CherryPick_Activity.; type: functional, Mycobacterium tuberculosis UT205
# [21] = nonselective inhibitors of cellular cAMP signaling, dose response, counter-screen for MC4R biased antagonist project, cell-based, TR-FRET cAMP detection (AID 602305); type: functional;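 also: U2OS cells stimulated with forskolin near its EC80 as the cAMP inducer; potency is for inhibition of forskolin-stimulated cAMP signaling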
# [22] = molecular target: Melanocortin receptor 4 (Homo sapiens, UniProt P32245); test: MC4R antagonist potency on cAMP, dose response, cell-based, TR-FRET, biased antagonists (AID 602298); type: functional;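 also: antagonist potency against agonist-stimulated cAMP production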
# [23] = control 3'UTR Renilla luciferase suppression, dose response, counter-screen for Shn3 inhibitor project, cell-based, Clone20-Shn3RL, cherry-picked (AID 624133); type: functional
# [24] = HepG2 cell cytotoxicity, dose response, cytotoxicity control for Shn3 inhibitor project, CellTiter-Glo, cherry-picked (AID 624134); type: functional, cell-based
# [25] = molecular target: Protein Wnt-3a (Mus musculus, UniProt P27467); test: Wnt3a-driven reporter signaling inhibition, dose response, selectivity assay for Gli-SUFU antagonist project, Wnt-LIGHT cells, luminescence (AID 651570); type: functional; settings: read-out: IC50_Mean;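 also: Wnt-LIGHT reporter cells stimulated with conditioned medium from Wnt3a-producing cells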
# [26] = Shn3 3'UTR reporter inhibitors, dose response, cell-based, Clone20 osteoblasts, firefly luciferase, cherry-picked (AID 624132); type: functional;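 also: firefly luciferase luminescence from reporter carrying the Shn3 3'UTR in osteoblasts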
# [27] = system: HeLa; test: HeLa cell cytotoxicity, dose response, cytotoxicity control for MITF activator project, CellTiter-Glo luminescence, cherry-pick samples (AID 540259); type: functional, cell-based; settings: Homo sapiens
# [28] = system: INS1; test: beta cell apoptosis inhibitors, cytokine rescue, dose response, luminescence, retest (AID 449756); type: functional, cell-based; settings: Rattus norvegicus;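 also: cell death triggered by IL-1 beta plus TNF-alpha plus IFN-gamma mixture; protective hits raise ATP signal compared with cytokine alone wells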
# [29] = Luminescence Cell-Based Dose Retest to Confirm Inhibitors of Cancer Stem Cells. [Related pubchem assays (depositor defined):AID2717, AID2721]; type: functional; settings: Homo sapiens
# [30] = molecular target: Ras and Rab interactor 1/Tyrosine-protein kinase ABL1 (Homo sapiens, UniProt P00519+Q13671); type: functional;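 also: biochemical TR-FRET dose-response test measuring inhibition of binding between Rin1 and Abl proteins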
# Chain of Melanocortin receptor 4 (P32245 whole entry): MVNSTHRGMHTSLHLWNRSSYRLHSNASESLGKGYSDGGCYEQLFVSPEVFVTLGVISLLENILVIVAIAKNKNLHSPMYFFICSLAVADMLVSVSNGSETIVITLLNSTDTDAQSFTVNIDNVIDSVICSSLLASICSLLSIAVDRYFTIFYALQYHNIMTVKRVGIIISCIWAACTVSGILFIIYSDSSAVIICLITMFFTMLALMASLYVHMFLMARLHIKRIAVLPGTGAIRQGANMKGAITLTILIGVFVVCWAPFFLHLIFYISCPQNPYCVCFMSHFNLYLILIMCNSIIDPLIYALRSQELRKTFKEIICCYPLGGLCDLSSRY
# Chain of Adenosylmethionine-8-amino-7-oxononanoate aminotransferase (P9WQ81 whole entry): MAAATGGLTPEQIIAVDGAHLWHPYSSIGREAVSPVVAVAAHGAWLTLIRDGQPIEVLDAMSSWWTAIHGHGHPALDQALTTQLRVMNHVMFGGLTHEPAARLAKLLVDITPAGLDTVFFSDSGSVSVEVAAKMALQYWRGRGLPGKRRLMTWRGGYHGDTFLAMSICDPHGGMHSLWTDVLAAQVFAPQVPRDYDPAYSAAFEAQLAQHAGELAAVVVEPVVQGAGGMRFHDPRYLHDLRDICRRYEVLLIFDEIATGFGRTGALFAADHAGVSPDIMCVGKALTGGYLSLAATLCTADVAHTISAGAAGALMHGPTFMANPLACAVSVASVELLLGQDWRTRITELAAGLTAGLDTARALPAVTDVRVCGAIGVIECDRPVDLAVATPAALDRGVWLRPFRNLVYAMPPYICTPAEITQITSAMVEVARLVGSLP
# Chain of Photoreceptor-specific nuclear receptor (Q9Y5X4 whole entry, the tested form may be a part): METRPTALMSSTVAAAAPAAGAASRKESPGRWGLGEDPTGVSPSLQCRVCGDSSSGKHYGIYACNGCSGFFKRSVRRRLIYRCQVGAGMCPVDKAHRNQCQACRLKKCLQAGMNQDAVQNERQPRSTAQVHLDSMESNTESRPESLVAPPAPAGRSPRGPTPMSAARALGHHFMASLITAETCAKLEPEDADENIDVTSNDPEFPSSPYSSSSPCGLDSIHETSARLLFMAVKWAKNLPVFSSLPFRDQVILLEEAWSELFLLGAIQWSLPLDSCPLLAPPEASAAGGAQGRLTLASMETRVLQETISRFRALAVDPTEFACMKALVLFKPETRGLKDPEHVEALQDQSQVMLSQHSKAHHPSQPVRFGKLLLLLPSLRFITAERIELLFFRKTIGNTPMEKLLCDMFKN
# Chain of Mu-type opioid receptor (P35372 whole entry): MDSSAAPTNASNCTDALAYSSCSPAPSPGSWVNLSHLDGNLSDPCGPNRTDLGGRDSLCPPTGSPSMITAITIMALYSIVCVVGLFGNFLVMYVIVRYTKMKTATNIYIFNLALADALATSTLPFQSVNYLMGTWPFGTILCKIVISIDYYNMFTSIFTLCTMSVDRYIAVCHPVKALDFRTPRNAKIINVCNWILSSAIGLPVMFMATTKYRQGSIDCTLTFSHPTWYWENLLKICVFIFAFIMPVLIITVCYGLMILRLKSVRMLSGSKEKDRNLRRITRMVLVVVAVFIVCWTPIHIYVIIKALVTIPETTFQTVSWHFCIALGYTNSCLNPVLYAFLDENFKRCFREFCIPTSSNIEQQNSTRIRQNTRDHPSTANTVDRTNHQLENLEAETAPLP
# Chain of 5-hydroxytryptamine receptor 2A (P35363 whole entry): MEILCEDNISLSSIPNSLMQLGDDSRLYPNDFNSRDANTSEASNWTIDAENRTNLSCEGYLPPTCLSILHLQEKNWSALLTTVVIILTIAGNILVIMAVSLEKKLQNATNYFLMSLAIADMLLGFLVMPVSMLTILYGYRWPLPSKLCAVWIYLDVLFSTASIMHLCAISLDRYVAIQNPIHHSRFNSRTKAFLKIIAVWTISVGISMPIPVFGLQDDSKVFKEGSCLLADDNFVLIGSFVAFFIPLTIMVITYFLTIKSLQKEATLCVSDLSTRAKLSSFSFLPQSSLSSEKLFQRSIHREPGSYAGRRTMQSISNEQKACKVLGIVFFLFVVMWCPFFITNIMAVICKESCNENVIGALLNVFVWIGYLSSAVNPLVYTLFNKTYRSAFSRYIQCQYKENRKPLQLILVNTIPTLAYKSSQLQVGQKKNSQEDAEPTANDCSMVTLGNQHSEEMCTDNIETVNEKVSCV
# Chain of Nuclear receptor subfamily 5 group A member 2 (O00482 whole entry): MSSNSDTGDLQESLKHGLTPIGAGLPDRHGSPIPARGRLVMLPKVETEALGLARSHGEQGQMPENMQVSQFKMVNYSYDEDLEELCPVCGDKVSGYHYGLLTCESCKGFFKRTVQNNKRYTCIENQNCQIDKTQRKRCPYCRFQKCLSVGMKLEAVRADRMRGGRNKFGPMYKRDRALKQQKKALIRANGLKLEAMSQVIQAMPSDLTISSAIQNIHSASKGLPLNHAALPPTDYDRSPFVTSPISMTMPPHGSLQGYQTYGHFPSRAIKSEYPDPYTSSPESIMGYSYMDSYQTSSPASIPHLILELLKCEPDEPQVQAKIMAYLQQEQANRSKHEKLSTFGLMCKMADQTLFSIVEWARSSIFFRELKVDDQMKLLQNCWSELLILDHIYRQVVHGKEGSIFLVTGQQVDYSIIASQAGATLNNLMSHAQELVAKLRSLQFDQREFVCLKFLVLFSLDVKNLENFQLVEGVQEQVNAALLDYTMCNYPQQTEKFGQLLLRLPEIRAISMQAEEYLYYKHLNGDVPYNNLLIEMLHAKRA
# Chain of Steroidogenic factor 1 (Q13285 whole entry): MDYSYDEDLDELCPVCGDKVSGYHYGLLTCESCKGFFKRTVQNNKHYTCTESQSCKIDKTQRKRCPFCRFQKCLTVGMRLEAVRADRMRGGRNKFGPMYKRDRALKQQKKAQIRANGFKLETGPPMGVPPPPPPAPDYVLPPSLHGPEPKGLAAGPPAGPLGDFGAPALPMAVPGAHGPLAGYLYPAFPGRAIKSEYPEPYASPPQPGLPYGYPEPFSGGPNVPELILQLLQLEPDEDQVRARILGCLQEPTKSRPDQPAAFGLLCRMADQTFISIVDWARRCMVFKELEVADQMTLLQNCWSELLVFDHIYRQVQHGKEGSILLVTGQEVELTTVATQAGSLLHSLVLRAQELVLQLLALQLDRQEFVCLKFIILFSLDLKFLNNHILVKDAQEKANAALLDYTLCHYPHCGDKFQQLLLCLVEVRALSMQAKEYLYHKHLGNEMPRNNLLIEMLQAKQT
# Chain of Protein Wnt-3a (P27467 whole entry): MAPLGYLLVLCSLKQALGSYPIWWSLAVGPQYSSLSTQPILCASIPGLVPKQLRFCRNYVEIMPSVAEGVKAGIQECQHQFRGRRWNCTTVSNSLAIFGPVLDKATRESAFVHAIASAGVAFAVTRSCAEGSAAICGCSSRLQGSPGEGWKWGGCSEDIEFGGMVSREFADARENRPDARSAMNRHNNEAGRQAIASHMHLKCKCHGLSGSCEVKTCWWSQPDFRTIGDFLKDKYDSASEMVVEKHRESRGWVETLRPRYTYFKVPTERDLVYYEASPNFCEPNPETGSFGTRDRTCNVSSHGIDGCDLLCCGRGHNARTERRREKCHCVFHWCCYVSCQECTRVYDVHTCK
# Chain of Luciferin 4-monooxygenase (P08659 whole entry, the tested form may be a part): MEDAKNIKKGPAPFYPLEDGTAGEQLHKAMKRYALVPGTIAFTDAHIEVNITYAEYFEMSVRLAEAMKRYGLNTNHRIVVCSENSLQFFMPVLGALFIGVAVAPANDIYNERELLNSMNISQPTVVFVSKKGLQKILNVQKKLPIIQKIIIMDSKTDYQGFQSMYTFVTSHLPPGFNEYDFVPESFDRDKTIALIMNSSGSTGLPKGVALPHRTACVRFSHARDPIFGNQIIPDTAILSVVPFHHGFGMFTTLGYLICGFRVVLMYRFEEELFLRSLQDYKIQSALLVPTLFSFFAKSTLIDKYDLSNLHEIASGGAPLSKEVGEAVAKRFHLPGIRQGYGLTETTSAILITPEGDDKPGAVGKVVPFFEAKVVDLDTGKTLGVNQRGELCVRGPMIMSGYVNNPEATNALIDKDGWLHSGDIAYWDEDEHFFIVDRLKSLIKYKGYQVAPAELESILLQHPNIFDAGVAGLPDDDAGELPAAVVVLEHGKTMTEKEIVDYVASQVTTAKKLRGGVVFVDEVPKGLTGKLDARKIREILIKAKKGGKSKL
# Chain of FAD-linked sulfhydryl oxidase ALR (P55789 whole entry): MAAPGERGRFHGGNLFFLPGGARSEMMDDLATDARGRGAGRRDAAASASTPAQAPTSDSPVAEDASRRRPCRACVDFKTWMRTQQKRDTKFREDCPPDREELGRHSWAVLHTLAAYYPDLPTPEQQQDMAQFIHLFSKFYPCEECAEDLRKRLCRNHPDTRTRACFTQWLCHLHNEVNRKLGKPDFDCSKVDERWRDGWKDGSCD
smiles,measurement,setting,value
O=C(Nc1ccc(C(=O)N2CCOCC2)cc1)c1cccc([N+](=O)[O-])c1,IC50,[1],15 µM (inactive)
same,IC50,[2],35.9 µM (inactive)
same,IC50,[3],1.09 µM (active)
COc1ccnc(Oc2ccccc2)c1C(=O)N=CNOCc1ccccc1F,IC50,[1],3.99 µM (active)
same,IC50,[2],26.1 µM (inactive)
same,IC50,[3],3.65 µM (active)
Brc1ccc(CN2CCN(c3ccccn3)CC2)s1,EC50,[4],0.0705 µM (active)
same,EC50,[5],92.5 µM (inactive)
O=C(Nc1ncccc1O)c1ccc(S(=O)(=O)N2CCCCCC2)cc1,IC50,[6],31.7 µM (inactive)
same,IC50,[7],> 67.5 µM (inactive)
Cc1nc2cc(-c3nc4ccccc4o3)ccc2[nH]1,IC50,[8],1.06 µM (active)
same,IC50,[9],> 49.8 µM (inactive)
same,IC50,[10],6.1 µM (active)
same,IC50,[11],> 88.8 µM (inactive)
same,IC50,[12],> 50 µM (inactive)
same,IC50,[13],> 66.2 µM (inactive)
NNC(=O)c1ccc(O)cc1O,EC50,[14],> 112 µM (not active)
same,AC50,[15],91.8 µM (active)
same,EC50,[16],> 195 µM (not active)
same,AC50,[17],16 µM (active)
same,EC50,[18],> 112 µM (not active)
Cc1c(NS(=O)(=O)c2cccc(C(=O)OCC(=O)N(C)C3CCCCC3)c2)c(=O)n(-c2ccccc2)n1C,IC50,[8],0.142 µM (active)
same,IC50,[9],> 49.7 µM (inactive)
same,IC50,[10],2.42 µM (active)
same,IC50,[11],1.2 µM (active)
same,IC50,[12],0.8 µM (active)
same,IC50,[13],> 66.2 µM (inactive)
c1ccc(CNc2ncnc3sccc23)cc1,IC50,[19],3.7 µM (active)
COc1ccc(C(C)NC(=O)Nc2ccc(C(C)=O)cc2)cc1OC (stereo unspecified),AC50,[20],3.72 µM (active)
COc1cc(-c2nc3ccc4ccccc4c3c3c2CCC3)cc(OC)c1OC,IC50,[21],> 64.6 µM (inactive)
same,IC50,[22],43.1 µM (inactive)
Cc1cc(Br)c(S(=O)(=O)NCc2ccncc2)cc1C,AC50,[23],3.34 µM (active)
same,AC50,[24],2.37 µM (active)
same,IC50,[25],3.16 µM (active)
same,AC50,[26],1.41 µM (active)
Cc1cccc(C)c1OCC(O)CN1CCN(c2ccccc2)CC1 (stereo unspecified),EC50,[4],76.1 µM (inactive)
same,EC50,[5],92.5 µM (inactive)
COc1cccc(-c2cc(C(=O)Nc3ccccc3SC)no2)c1,IC50,[8],1.91 µM (active)
same,IC50,[9],> 49.7 µM (inactive)
same,IC50,[10],3.59 µM (active)
same,IC50,[11],> 88.8 µM (inactive)
same,IC50,[12],> 50 µM (inactive)
same,IC50,[13],> 66.2 µM (inactive)
same,AC50,[27],97.5 µM (active)
CCCC(C)C(=O)Nc1nc(C)c(-c2csc(Nc3ccc(Cl)cc3)n2)s1 (stereo unspecified),AC50,[28],4.18 µM (active)
same,IC50,[25],13.8 µM (active)
O=C(Nc1ccccc1N1CCCCC1)c1ccc(Cl)c([N+](=O)[O-])c1,AC50,[29],3.19 µM (active)
same,IC50,[21],> 64.6 µM (inactive)
same,IC50,[22],> 64.6 µM (inactive)
O=C(OCCOc1ccc(Cl)cc1)c1cc(S(=O)(=O)N2CCCCC2)ccc1N1CCOCC1,AC50,[23],6.64 µM (active)
same,IC50,[19],4.3 µM (active)
same,AC50,[24],> 70 µM (inactive)
same,AC50,[26],1.97 µM (active)
CN(Cc1ccccc1)S(=O)(=O)c1ccc(Cl)c(C(=O)N2CCC2)c1,IC50,[30],32.9 µM (inactive)
COc1ccc(CCNC(=O)c2ccc(NC3=NC4CS(=O)(=O)CC4S3)cc2)cc1OC (stereo unspecified),IC50,[30],26.3 µM (inactive)
O=C(Cc1ccccc1)N1CC[C@@H]2[C@H](CO)Nc3ccc(Br)cc3[C@@H]21,AC50,[20],3.09 µM (active)

# From ChEMBL document CHEMBL1201862, “PubChem BioAssay data set” (2004)
